Patent US20040039014A1, “Methods and compounds for treating depression and other disorders” (NPS Pharmaceuticals, Inc., priority 1998, published 2004)
Structures can show the parent of a compound that is named as a salt. Marks after values point to notes of the source that are not given here.

Legend:
male Sprague-Dawley rats = experiment: Rat forced-swim test (FST); assay type: in vivo; settings: Table VI, 60 minutes prior to testing, saline control 47.9
Method: (§1) For the mouse and rat forced-swim tests, male pathogen-free NIH-Swiss mice (Harlan Sprague-Dawley) weighing between 22-25 g, and male pathogen-free Sprague-Dawley rats (Harlan Sprague-Dawley) weighing between 320-350 g were used. Animals were removed from the housing room to the testing area in their own cages and allowed to adapt to the new environment for at least 1 hour before testing. Mice were administered either drug (imipramine, 10 mg/kg i.p.; or Compound 60, various p.o or i.p. doses) or saline. Thirty minutes to 24 hours later, mice were placed individually in cylinders (diameter: 10 cm; height: 25 cm) filled with 6 cm of water (22-25° C.) for 6 minutes. The duration of immobility during the last 4 minutes of the 6 minute test was scored. A mouse was recorded as immobile when floating motionless or making only those movements necessary to keep its head above water. Results were expressed as the duration of immobility (seconds).
The rat forced-swim test was conducted over two days. On treatment Day 1, rats were placed individually in cylinders (diameter: 18 cm; height: 40 cm) filled with water (22-25° C.) to a depth of 15 cm for 15 minutes. The duration of immobility during the first 5 minutes was scored. After testing, the rats were dried with paper towels and placed in holding cages. Five minutes after removal from the testing cylinders, animals received either drug (imipramine, 10 mg/kg i.p.; or Compound 60, various p.o. doses) or saline (p.o.). Ten minutes later, the rats were returned to their home cages. […] The duration of immobility during the first 5 minute period was recorded. A rat was recorded as immobile when floating motionless or making only those movements necessary to keep its head above water. […]

[1] = target: T1, dopamine transporter site (Cavia porcellus, UniProt H0WCX4); experiment: Dopamine reuptake inhibition assay ([3H]WIN 35428 binding, guinea pig striatal membranes); settings: Table I; read-out: DA Uptake Ki
T1 construct: tissue NovaScreen (performed the assay); host or cells: guinea pig striatal membranes
Method: (§2) Monoamine Transporter Minding Assays
(§3) Monoamine transporter binding assays (reuptake inhibition assays) were performed by NovaScreen using standard radioligand binding assays. The transporter binding assays are described briefly below:
Dopamine Reuptake Inhibition Assay:
Reactions were terminated by rapid vacuum filtration onto glass fiber filters. Bound radioactivity was determined using liquid scintillation spectrometry and experimental values were compared to control values to determine binding to the dopamine transporter site based on Madras, et al., Molec.

NMDA receptor = target: T2, NMDA receptor; experiment: [3H]MK-801 binding assay (rat cortex synaptic plasma membranes); settings: read-out: [3H]MK-801 data IC50, Table I
T2 construct: rat cortex membranes
Method: Synaptic plasma membranes (SPMs) from rat cortex were prepared as follows. Isolated cerebral cortices from male and female rats were purchased from Pel-Freez (Rogers, Ariz.) in bulk, and stored at −80° C. The cortices from 25 rats were thawed and pooled. […] The resulting homogenates were centrifuged for 10 min at 1,000×g in a T865 rotor, UltraPro80 Sorvall Centrifuge. The supernatant was removed and subsequently centrifuged at 30,000×g for 30 min. […] Membranes were washed by re-suspension in 500 ml of 5 mM K-EDTA (pH 7.0), incubated at 32° C. for 30 min with stirring, and centrifuged at 100,000×g for 30 min. The final pellet was resuspended in 60 ml of […] K-EDTA (pH 7.0) and stored in aliquots at −80° C. The extensive washing procedure utilized in this assay was designed to minimize the concentrations of glutamate and glycine (co-agonists at the NMDA receptor-ionophore complex) present in the membrane preparation.
On the day of assay, aliquots of SPM were thawed and resuspended in 75 vols of 5 mM K-EDTA, pH 7.0. SPM were centrifuged at 100,000×g for 30 min at 4° C.
The SPM pellet was resuspended in assay buffer (30 mM EPPS, 1 mM K-EDTA, pH 7.0) by polytron. […] Binding was started by the addition of the tissue homogenate. The assay was terminated by the addition of 4 ml ice-cold buffer, followed by filtration over glass-fiber filters (Schleicher & Schuell No. 30) on a Millipore 12-well filtration manifold. Filters were washed with another 3 ×4 ml ice-cold buffer (pH 7.0). Radioactivity on the filters was measured using Fisherbrand Scinti-Safe scintillation cocktail. Samples were shaken for 45-60 min on a shaker platform to solubilize the radioactivity. Counting for ^3H was performed in a Beckman 6000IC LS Scintillation Counter for 4 min per sample.

male NIH-Swiss mice = experiment: Mouse forced-swim test (FST); assay type: in vivo
Method: as §1

[2] = target: T3, norepinephrine transporter site (Rattus norvegicus, UniProt Q63380); experiment: Norepinephrine reuptake inhibition assay ([3H]nisoxetine binding, rat forebrain membranes); settings: Table I; read-out: NE Uptake Ki
T3 construct: tissue NovaScreen (performed the assay); host or cells: rat forebrain membranes
Method: as §2, §3
Norepinephrine Reuptake Inhibition Assay
Reactions were terminated by rapid vacuum filtration onto glass fiber filters.

[3] = target: T4, serotonin transporter site (Rattus norvegicus, UniProt P31652); experiment: Serotonin reuptake inhibition assay ([3H]citalopram binding, rat forebrain membranes); settings: Table I; read-out: 5-HT Uptake Ki
T4 construct: tissue NovaScreen (performed the assay); host or cells: rat forebrain membranes
Method: as §2, §3
Serotonin Reuptake Inhibition Assay
Rat forebrain membranes were incubated with 0.7 nM [^3H] citalopram, N-methyl, (70-87 Ci/mmol)in 50 mM Tris-HCl (pH 7.4), 120 mM NaCl, and 5 mM KCl at 25° C. for 60 minutes. […] Reactions were terminated by rapid vacuum filtration onto glass fiber filters.

T3 sequence (Q63380 1-617): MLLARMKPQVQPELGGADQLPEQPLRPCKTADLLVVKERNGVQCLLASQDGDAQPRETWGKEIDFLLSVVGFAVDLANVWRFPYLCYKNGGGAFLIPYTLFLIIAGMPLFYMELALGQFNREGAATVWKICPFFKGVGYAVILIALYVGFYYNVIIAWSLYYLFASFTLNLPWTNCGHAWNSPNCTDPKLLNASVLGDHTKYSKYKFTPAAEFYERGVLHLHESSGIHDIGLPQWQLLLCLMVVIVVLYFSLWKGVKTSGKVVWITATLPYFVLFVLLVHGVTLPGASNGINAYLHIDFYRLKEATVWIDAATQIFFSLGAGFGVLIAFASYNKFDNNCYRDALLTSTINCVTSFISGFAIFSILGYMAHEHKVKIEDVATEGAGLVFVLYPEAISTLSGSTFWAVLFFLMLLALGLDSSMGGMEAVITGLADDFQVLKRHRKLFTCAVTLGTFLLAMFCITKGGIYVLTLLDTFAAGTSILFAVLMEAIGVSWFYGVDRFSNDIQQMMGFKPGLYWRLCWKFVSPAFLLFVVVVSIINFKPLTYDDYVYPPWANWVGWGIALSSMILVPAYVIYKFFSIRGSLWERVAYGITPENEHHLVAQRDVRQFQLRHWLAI
T1 sequence (H0WCX4 1-619): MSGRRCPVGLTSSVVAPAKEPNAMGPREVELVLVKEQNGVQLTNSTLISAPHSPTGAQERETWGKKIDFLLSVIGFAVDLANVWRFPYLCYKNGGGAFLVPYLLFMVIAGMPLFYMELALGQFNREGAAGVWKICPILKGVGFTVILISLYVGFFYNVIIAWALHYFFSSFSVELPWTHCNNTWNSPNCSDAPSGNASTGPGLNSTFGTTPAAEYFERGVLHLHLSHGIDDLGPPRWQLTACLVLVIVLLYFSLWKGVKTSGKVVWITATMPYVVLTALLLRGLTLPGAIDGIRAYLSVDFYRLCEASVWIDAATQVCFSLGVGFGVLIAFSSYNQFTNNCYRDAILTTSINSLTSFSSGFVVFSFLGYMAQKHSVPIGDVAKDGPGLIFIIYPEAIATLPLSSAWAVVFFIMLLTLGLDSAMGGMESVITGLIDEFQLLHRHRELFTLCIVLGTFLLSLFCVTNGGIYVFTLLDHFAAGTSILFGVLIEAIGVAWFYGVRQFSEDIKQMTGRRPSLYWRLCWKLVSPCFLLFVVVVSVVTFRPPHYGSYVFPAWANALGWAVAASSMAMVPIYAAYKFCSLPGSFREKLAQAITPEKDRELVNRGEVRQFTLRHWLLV
T4 sequence (P31652 whole entry): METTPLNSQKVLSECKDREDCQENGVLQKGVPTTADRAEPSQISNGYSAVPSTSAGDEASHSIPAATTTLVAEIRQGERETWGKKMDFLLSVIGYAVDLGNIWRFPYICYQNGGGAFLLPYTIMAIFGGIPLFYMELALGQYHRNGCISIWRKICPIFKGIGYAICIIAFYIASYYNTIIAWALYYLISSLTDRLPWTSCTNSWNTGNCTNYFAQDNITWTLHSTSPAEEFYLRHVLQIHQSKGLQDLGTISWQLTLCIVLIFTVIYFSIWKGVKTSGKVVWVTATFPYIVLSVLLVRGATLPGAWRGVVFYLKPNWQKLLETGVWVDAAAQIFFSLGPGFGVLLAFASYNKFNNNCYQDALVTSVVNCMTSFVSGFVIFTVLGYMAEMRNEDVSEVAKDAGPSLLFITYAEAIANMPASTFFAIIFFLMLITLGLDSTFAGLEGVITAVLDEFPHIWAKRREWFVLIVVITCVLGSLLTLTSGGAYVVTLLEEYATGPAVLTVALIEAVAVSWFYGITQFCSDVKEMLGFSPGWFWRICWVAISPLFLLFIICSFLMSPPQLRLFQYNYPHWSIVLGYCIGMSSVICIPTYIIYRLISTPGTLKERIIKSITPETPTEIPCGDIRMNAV

CNCCC(c1cccc(F)c1)c1cccc(F)c1 [Compound 60, N-Methyl-3.,3-bis(3-fluorophenyl)propylamine hydrochloride]
Mean Change in the Duration of Immobility (Day 2 minus Day 1) (male Sprague-Dawley rats; 1.25 mg/kg oral): 29.7 s
Mean Change in the Duration of Immobility (Day 2 minus Day 1) (male Sprague-Dawley rats; 2.5 mg/kg oral): −24.8* sec
Mean Change in the Duration of Immobility (Day 2 minus Day 1) (male Sprague-Dawley rats; 5 mg/kg oral): −28.8* sec
Ki [1]: 914 nM
IC50 (NMDA receptor): 641 nM
Mean duration of immobility (male NIH-Swiss mice; Table III, 5 mg/kg p.o. single dose, time post-dose 0.5, saline control 128.2): 96.1 s
Mean duration of immobility (male NIH-Swiss mice; Table III, 5 mg/kg p.o. single dose, time post-dose 1, saline control 128.2): 38.8* sec
Mean duration of immobility (male NIH-Swiss mice; Table III, 5 mg/kg p.o. single dose, time post-dose 2, saline control 128.2): 66.2* sec
Mean duration of immobility (male NIH-Swiss mice; Table III, 5 mg/kg p.o. single dose, time post-dose 4, saline control 128.2): 66.9* sec
Mean duration of immobility (male NIH-Swiss mice; Table III, 5 mg/kg p.o. single dose, time post-dose 6, saline control 128.2): 76.8* sec
Mean duration of immobility (male NIH-Swiss mice; Table III, 5 mg/kg p.o. single dose, time post-dose 24, saline control 128.2): 124.8 s
Mean duration of immobility (male NIH-Swiss mice; Table IV, 0.625 mg/kg single oral dose 60 minutes prior to testing, saline control 129.7): 153.3 s
Mean duration of immobility (male NIH-Swiss mice; Table IV, 1.25 mg/kg single oral dose 60 minutes prior to testing, saline control 129.7): 72.3* sec
Mean duration of immobility (male NIH-Swiss mice; Table IV, 2.5 mg/kg single oral dose 60 minutes prior to testing, saline control 129.7): 64.5* sec
Mean duration of immobility (male NIH-Swiss mice; Table IV, 5 mg/kg single oral dose 60 minutes prior to testing, saline control 129.7): 56.6* sec
Mean duration of immobility (male NIH-Swiss mice; Table IV, 10 mg/kg single oral dose 60 minutes prior to testing, saline control 129.7): 68.7* sec
Mean duration of immobility (male NIH-Swiss mice; Table V, 0.625 mg/kg single i.p. dose 30 minutes prior to testing, saline control 137.8): 139.5 s
Mean duration of immobility (male NIH-Swiss mice; Table V, 1.25 mg/kg single i.p. dose 30 minutes prior to testing, saline control 137.8): 85.6* sec
Mean duration of immobility (male NIH-Swiss mice; Table V, 2.5 mg/kg single i.p. dose 30 minutes prior to testing, saline control 137.8): 68.5* sec
Mean duration of immobility (male NIH-Swiss mice; Table V, 5 mg/kg single i.p. dose 30 minutes prior to testing, saline control 137.8): 89.6* sec
Mean duration of immobility (male NIH-Swiss mice; Table V, 10 mg/kg single i.p. dose 30 minutes prior to testing, saline control 137.8): 106.1 s
time of peak effect (reduction in the duration of immobility) post-dosing (male NIH-Swiss mice; mouse FST, single dose 5 mg/kg p.o.): 60 min
Ki [2]: > 10000 nM
Ki [3]: 68 nM
